Measured values taken from patent US20210393547A1, “USE OF EMODIN IN TREATING RETINAL ISCHEMIA OR A DISEASE, CONDITION, OR DISORDER ASSOCIATED WITH RETINAL ISCHEMIA” (priority 2020, published 2021).

Experiments:
[1] = system: retinal ischemia in Wistar rats; assay: ERG b-wave recording after raised-IOP retinal ischemia/reperfusion; format: in vivo, rat; conditions: for ERG b-wave ratio (treated eye to untreated fellow eye): mean±S.E.M.; for ERG b-wave amplitude: Wistar rat
Protocol: Emodin was purchased from Sigma-Aldrich (E7881; 90%; storage at 2-8° C.; from Frangula bark; St. Louis, Mo., United States). Drug administration for different procedures, namely ERG, fluorogold RGC labelling, cresyl violet retinal staining and Western blot assays, were described in Tables 3 to 6. Vehicle or emodin (5 μL) was administered via an intravitreous injection route so that these agents were then able to be directly diffused to the target. Emodin was dissolved in vehicle (DMSO:distilled water=1:3). The defined final cellular concentrations of administered drug were 0.25 or 0.5 μM, which were achieved after 40 times dilution from the stock concentrations, namely 10 or 20 μM, based on an arbitrary definition of the vitreous volume as 200 μL. To test a wider range of dose-response, 4 μM of emodin was thus added in the animal experiments. The Vehicle+IR and Emo+IR groups (pre-ischemic administration of emodin 4, 10 or 20 μM) were subjected to following the experimental procedures; these were initial pre-ischemic intravitreous injection (vehicle or emodin), retinal ischemia induction 1 day later, and sacrifice of the animal on the following day to allow the various post-mortem procedures except ERG. In the post-ischemic treatment group, in order to decrease the number of animals used, the present invention only used a single emodin concentration of 20 μM. Furthermore, intravitreous emodin was given 1 day after initial retinal ischemia induction and animals were sacrificed the following day to allow the performance of various post-mortem procedures as mentioned above.
The IOP procedure used raised the IOP and was designed to cause retinal ischemia in Wistar rats and simulate ischemic retinal disorders. The rats were anesthetized and constrained with a sterotaxic frame. A 30-gauge needle connected to an elevated saline bottle was attached to anterior chamber of the rat's eye. The pressure exerted by the saline inside the bottle was controlled to 120 mmHg. This procedure was conducted for 1 hour. Successful retinal ischemia induction was confirmed by observing that the whitening of the retina took place. Throughout the experiments, the animals were kept on heat mats to maintain their temperature. The sham procedure involved keeping the pressure in saline bottle 0 mmHg.
Animals were given anesthesia prior to the flash ERG measurements. For the Sham or pre-ischemic treatment group (intravitreous injection of emodin or vehicle 1 day before ischemia; Emodin+IR or Vehicle+IR), flash ERG responses were measured before the sham procedure, IR procedures or any drug administration (day 0), and one day after the sham procedure or IR procedure with pre-ischemic intravitreous injection. In the post-ischemic treatment group, ERG recordings were collected pre-ischemia (day 0), and post-ischemia (at timepoints: 1 day after ischemia; 1 day after post-ischemic intravitreous injection of emodin). Dark adaption and pupil dilation using 1% tropicamide and 2.5% phenylephrine were carried out 8 hours before the ERG measurement. The ERG recording machinery was purchased from the Grass-Telefactor Company (AstroNova, QC, Canada) and included a stimulator (PS22), a regulated power supply (RPS107), and an amplifier (P511). A strobe light (0.5 Hz), which acted as the source of stimulus, was placed 2 cm directly in front of the rat's eye. Fifteen consecutive measurements (10 kHz) were retrieved every two seconds. The amplitudes were calculated to obtain an average. To make comparisons between the various groups, the ratios of the b-wave amplitude of one eye (sham procedure or ischemic insult with defined agents) to that of the untreated fellow normal eye were analyzed.

[2] = system: RGC-5 cells; assay: cells; format: cell-based; conditions: Mus musculus, RGC5, read-out: Cell viability (% of control)
Protocol: RGC-5 cells have been reported to be not transformed rat RGCs, but rather are mouse retinal neuronal precursor cells. OGD was established by incubating RGC-5 cells in Dulbecco's modified Eagle medium (DMEM; Thermo Fisher Scientific Inc.) without glucose at 37° C. under ischemia simulation conditions, namely 1% O2 (measured using a Penguin Incubator; Astec Company, Kukuoka, Japan), 94% N2 and 5% CO2. Various experimental groups (Table 1) were investigated. […]
Mitochondrial nicotinamide adenine dinucleotide phosphate dependent oxidoreductases are able to reduce MTT to produce formazan and thus increased levels of dark purple formazan that are associated with greater cell viability. […] After shaking, the optical density (OD) of the dissolved formazan was measured using an ELISA plate reader (Synergy H1 Multi-Mode Reader BioTek Instruments) at 562 nm. Cell viability was calculated as the change in OD value compared to the untreated control (100%).
The cultured cells were used to identify the effective dose(s) of the tested agent emodin. The effect of emodin (0.25 and 0.5 μM) on the cultured cells was evaluated utilizing MTT cell viability assays and a cellular ischemia simulation model, namely OGD, for 1 day. […]

SMILES: Cc1cc(O)c2c(c1)C(=O)c1cc(O)cc(O)c1C2=O [emodin, 6-methyl-1,3,8-trihydroxyanthraquinone]
- ERG b-wave ratio (treated eye to untreated fellow eye) ([1]; Emo4+IR: pre-ischemic intravitreous 4 μM emodin, n=8, Sham normalized to 1, Vehicle+IR 0.04): 0.08±0.07
- ERG b-wave amplitude ([1]; Emo4+IR: pre-ischemic intravitreous injection of 4 μM emodin followed by IR, Sham 0.87, Vehicle+IR 0.03): 0.07 mV
- ERG b-wave ratio (treated eye to untreated fellow eye) ([1]; Emo10+IR: pre-ischemic intravitreous 10 μM emodin, n=4, P<0.001 vs Vehicle+IR): 0.64±0.28
- ERG b-wave amplitude ([1]; Emo10+IR: pre-ischemic intravitreous injection of 10 μM emodin followed by IR): 0.58 mV
- ERG b-wave ratio (treated eye to untreated fellow eye) ([1]; Emo20+IR: pre-ischemic intravitreous 20 μM emodin, n=4, P<0.001 vs Vehicle+IR): 0.99±0.18
- ERG b-wave amplitude ([1]; Emo20+IR: pre-ischemic intravitreous injection of 20 μM emodin followed by IR): 0.63 mV
- ERG b-wave amplitude ([1]; IR+Emo20: IR followed by post-ischemic intravitreous injection of 20 μM emodin): 0.12 mV
- ERG b-wave ratio (treated eye to untreated fellow eye) ([1]; IR+Emo20: post-ischemic intravitreous 20 μM emodin, n=9, P<0.001 vs Vehicle+IR): 0.24±0.09
- viability at 0.25 µM [2]: 43.8 ± 3.75%
- viability at 0.5 µM [2]: 47.5 ± 3.99%
